Laboratory results taken from PMC4837544, “Differential kinetic profiles and metabolism of primaquine enantiomers by human hepatocytes” (Malaria Journal, 2016).
Read-outs that look alike come from different tables or passages of the source.

Assays:
[1] = system: primary human hepatocytes; assay type: in vitro ADME; settings: for enantiomer from which the metabolite is generated: 20 µM (+)-, (−)- and (±)-PQ; for amount detected: peak areas too minute to profile
Procedure: (§1) A separate control incubation of PQ and the two enantiomers in the cell-free hepatocyte media was performed to detect any non-enzymatically generated product. Metabolic reactions were halted by the addition of two volumes of ice-cold methanol containing 0.5 µg/mL 6-d3-methoxyprimaquine as an internal standard at predetermined time intervals. This mixture was vortexed and kept at −20 °C for at least 4 h before further analysis. Parallel incubation of substrate-free hepatocytes was performed. At each time point, aliquots were taken for cell viability measurement.
(§2) In preparation for HPLC–MS analysis, samples were centrifuged (10,000g, 10 min) and clear supernatants were dried using a Speedvac. The dried samples were re-suspended in 150 µL methanol, centrifuged and clear supernatants were transferred to HPLC sample vials for analysis.
(§3) The analytical method for simultaneous analysis of primaquine and its metabolites using the Ultra-High Performance Liquid Chromatography-Mass Spectrometry (UHPLC-QToF-MS), as earlier developed and reported was employed in this study. […] Details of the chromatography set-up are published.
Metabolites in the accurate mass data were found using the Metabolynx® software. The data were searched using predicted metabolite mass, mass defects, isotope, and fragmentation patterns. Each sample was subjected to data acquisition in full scan and data-dependent positive MS/MS, targeted MS/MS (ESI positive ionization mode) and high-resolution MS (HRMS) modes using the Waters ACQUITY™ XEVO QTOF Mass Spectrometer (Waters Corporation, Manchester, UK) connected to the UHPLC system via an electrospray ionization (ESI) interface. Metabolites were distinguished from artifacts and unrelated products by the presence of twin peaks with a mass difference of six, arising from the six labels in the 1:1 mixture of 12-C and 13-C-labelled PQ. The Identification of each metabolite was assisted by its HRMS data, which were used to calculate their elemental compositions. The full scan mass data were screened and filtered using Waters MetaboLynx XS software. The qualitative metabolite identification was performed using this software package.

[2] = parameters: method as in PMID 25637634; settings: cited from earlier work
[3] = system: primary human hepatocytes; assay: Hepatocyte viability time course by cell counts in presence and absence of PQ; assay type: cell-based
Procedure: Parallel incubation of substrate-free hepatocytes was performed.

[4] = parameters: method as in PMID 25645856; settings: mice, therapeutic doses ref 22; cited from earlier work
[5] = Substrate depletion / intrinsic clearance of PQ and its enantiomers in cryopreserved human hepatocytes; settings: both, human; for half-life at 20 µM: hepatocytes, t½ (initial half-life), human hepatocytes
Excerpt: (§4) Pooled mixed-gender cryopreserved metabolism-qualified (CYP1A2, 2B6, 2C8, 2C9, 2C19, 2D6, 3A4, UGT2B7, UDP-glucuronosyltransferase) primary human hepatocytes (catalog number 454504) sourced from free donors (who were free of HIV, HBV, HCV and other liver-related diseases) were purchased from Corning Life Sciences (Woburn MA, USA) and stored in liquid nitrogen until use.
(§5) The cryopreserved hepatocytes were thawed and the cells were suspended in recovery medium (Corning Life Sciences). According to the supplier’s instructions, the suspended cells were centrifuged (300g, 5 min), the recovery medium discarded and the cells were re-suspended in the plating medium. Viability of the suspended hepatocytes was computationally determined based on cell counts using a Bio-Rad automated cell counter (Hercules, CA, USA). The cell density was adjusted to approximately 1X10^6 viable cells/mL in the plating media.
as §1, with “PQ, racemic and enantiomers, prepared as a 1:1 mixture of 12-C and 13-C-labelled compounds, were separately incubated at a final concentration of 20 µM in the cell-containing plating media using the 48-well plate at 37 °C under a humidified atmosphere of 95 % air and 5 % CO2 in an Eppendorf incubator (Hauppauge, NY, USA) attached with a shaker set at 75 rpm. A separate” for “A separate”
as §2, §3
(§6) Initial half-life (t^1/2) and elimination rate constants (λ = ln2/t^1/2) of PQ in hepatocyte incubates were calculated by log-linear regression of PQ concentrations profiled against time using data from the sampling points of the 20 µM PQ incubates. The intrinsic clearance in vitro (CLint in vitro) was calculated from λ and the cell density in the respective incubation (number of viable hepatocytes per mL at time zero) and scaled up to the intrinsic clearance in vivo (CLint in vivo) using the human liver mass (25.7 g/kg body mass) and the hepatocellularity (number of hepatocytes per gram of liver = 99 millions cells/g liver): CLint in vitro = λ/cell density. CLint in vivo = CLint in vitro × liver mass × heptocellularity. From CLint in vivo and the hepatic blood flow [Q (20.7 mL/min)/kg body mass], the hepatic metabolic blood clearance (CLh,b) was predicted using the well-stirred model: CLh,b = (CLint in vivo × Q)/(CLint in vivo + Q).
(§7) Since this estimation was for comparisons between enantiomers only, no corrections were made for the free fractions in vitro or in vivo—i.e. they were assumed to be identical.

[6] = system: primary human hepatocytes; assay: as above; settings: for substrate depleted: by 2 h; for substrate depleted / λ elimination rate constant / t½ (initial half-life): 20 µM; for substrate depleted / λ elimination rate constant: human hepatocytes 1 million cells/mL; for CLh,b (% hepatic blood flow): human Qh 20.7 mL/min/kg; for λ elimination rate constant: log-linear regression 0–60 min
Excerpt: as §4, §5
as §1, with “PQ, racemic and enantiomers, prepared as a 1:1 mixture of 12-C and 13-C-labelled compounds, were separately incubated at a final concentration of 20 µM in the cell-containing plating media using the 48-well plate at 37 °C under a humidified atmosphere of 95 % air and 5 % CO2 in an Eppendorf incubator (Hauppauge, NY, USA) attached with a shaker set at 75 rpm. A separate” for “A separate”
as §2, §3, §6, §7

recombinant human CYP2D6 = system: recombinant human CYP2D6; parameters: method as in PMID 25518709; settings: cited from earlier work; for depletion of PQ enantiomers: 2 h incubation with recombinant human CYP2D6 ref 12
[7] = parameters: method as in PMID 24913163, PMID 25267666; settings: monkeys, higher than therapeutic doses ref 8, 9; cited from earlier work
[8] = parameters: method as in PMID 24913163, PMID 25267666; settings: beagle dogs and mouse models ref 8, 9; cited from earlier work
malaria = system: malaria; parameters: method as in PMID 24913163; settings: suppressive and prophylactic assays, mice ref 8; cited from earlier work
Pneumocystis carinii = system: Pneumocystis carinii; parameters: method as in PMID 24913163; settings: mice ref 8; cited from earlier work
[9] = parameters: method as in PMID 24913163, PMID 25267666; settings: beagle dogs, humanized mouse model and monkeys ref 8, 9; cited from earlier work
[10] = parameters: method as in PMID 25267666, PMID 25637634, PMID 23378100; settings: after racemic PQ in mice, monkeys and humans ref 9, 15, 16; cited from earlier work
[11] = Control incubation in cell-free hepatocyte media (non-enzymatic products); assay type: in vitro ADME
Procedure: as §1, with “PQ, racemic and enantiomers, prepared as a 1:1 mixture of 12-C and 13-C-labelled compounds, were separately incubated at a final concentration of 20 µM in the cell-containing plating media using the 48-well plate at 37 °C under a humidified atmosphere of 95 % air and 5 % CO2 in an Eppendorf incubator (Hauppauge, NY, USA) attached with a shaker set at 75 rpm. A separate” for “A separate”

[12] = human hepatocytes, computed from λ
[13] = human hepatocytes, computed from λ (ln2/λ)

SMILES: COc1cc(N2C(=O)CCC2C)c2ncccc2c1 (stereo not drawn)
- enantiomer from which the metabolite is generated [1]: preferentially generated from the (−)-PQ

SMILES: COc1cc([N+]2=CCCC2C)c2ncccc2c1 (stereo not drawn)
- enantiomer from which the metabolite is generated [1]: preferentially generated from the (−)-PQ

SMILES: COc1cc(NC(C)CCCN)c2ncccc2c1 (racemic) [(±)-PQ, primaquine]
- expected peak plasma concentrations ([2]; humans ref 15): < 2 µM
- direct hepatocellular toxicity (viable cell counts vs drug-free incubation) ([3]; 20 µM, up to 2 h): absence of PQ-induced direct hepatocellular toxicity
- hepatocyte viability ([3]; at the 2 h termination time, drug-free and PQ-containing incubates similar): 88 % of the starting value
- liver concentration relative to plasma [4]: about 20 times
- Km [5]: 37 µM
- k el at 20 µM [5]: 9.44e-05 s⁻¹
- half-life at 20 µM ([5]; computed from λ): 2.03 h
- half-life at 20 µM ([5]; computed from λ (ln2/λ)): 2.03 h
- substrate depleted [6]: 30%
- CLh,b (% hepatic blood flow) [6]: 36 % hepatic blood flow

SMILES: COc1cc(NC(C)CCCN)c2ncccc2c1 (single isomer, unassigned; (-)) [(−)-PQ, (−)-primaquine]
- depletion of PQ enantiomers (recombinant human CYP2D6): 30%
- liver damage [7]: reversible liver damage
- λ elimination rate constant [6]: 0.64 h⁻¹
- t½ (initial half-life) [6, 12]: 1.08 h
- t½ (initial half-life) [6, 13]: 1.09 h
- substrate depleted [6]: 42%
- CLh,b (% hepatic blood flow) [6]: 51 % hepatic blood flow
- in vitro clearance compared with (+)-PQ ([6]; human hepatocytes): three times faster

SMILES: COc1cc(NC(C)CCCN)c2nc(O)ccc2c1 (stereo not drawn) [2-hydroxyprimaquine]
- enantiomer from which the metabolite is generated [1]: exclusively generated from the (+)-PQ
- amount detected [1]: trace amounts

SMILES: COc1cc(NC(C)CCCN)c2nccc(O)c2c1 (stereo not drawn) [4-hydroxyprimaquine]
- enantiomer from which the metabolite is generated [1]: exclusively generated from the (+)-PQ
- amount detected [1]: trace amounts

SMILES: COc1cc(N[C@@H](C)CCCN)c2ncccc2c1 [(+)-PQ, (+)-(S)-primaquine]
- depletion of PQ enantiomers (recombinant human CYP2D6): 50%
- rate of metabolism compared to (−)-PQ (recombinant human CYP2D6; in vitro with recombinant human CYP2D6 ref 12): significantly higher
- acute toxicity [8]: higher acute toxicity than (−)-PQ
- anti-malarial activity compared with (−)-PQ (malaria): more active than (−)-PQ
- λ elimination rate constant [6]: 0.19 h⁻¹
- t½ (initial half-life) [6, 12]: 3.62 h
- t½ (initial half-life) [6, 13]: 3.62 h
- substrate depleted [6]: 16%
- rate of hepatic clearance of (+)-PQ relative to that of (−)-PQ ([6]; extrapolated in vivo human hepatic blood clearance, well-stirred liver model): 45%
- CLh,b (% hepatic blood flow) [6]: 24 % hepatic blood flow
- initial half-life compared with (−)-PQ ([6]; human hepatocytes): more than three times longer
- Pneumocystis carinii pneumonia efficacy compared with (−)-PQ (Pneumocystis carinii): more active than (−)-PQ
- methaemoglobinemia [9]: higher methaemoglobinemia than (−)-PQ

SMILES: COc1cc(NC(C)CCC(=O)OC2OC(C(=O)O)C(O)C(O)C2O)c2ncccc2c1 [CPQ glucuronide, Carboxyprimaquine-β-D-glucuronide]
- enantiomer from which the metabolite is generated [1]: preferentially generated from the (−)-PQ

SMILES: COc1cc(NC(C)CCC(=O)O)c2ncccc2c1 (stereo not drawn) [CPQ, carboxyprimaquine]
- enantiomer from which the metabolite is generated [1]: preferentially generated from the (−)-PQ
- portion of metabolite generated within 30 min ([1]; 2 h incubation): 75%
- CPQ peak plasma concentration from (−)-PQ relative to from (+)-PQ ([2]; human, after racemic primaquine ref 15): 15 times
- enantiomeric form in plasma [10]: predominantly the (−)-form

SMILES: COc1cc(NC(C)CCCNC(=O)OC2OC(C(=O)O)C(O)C(O)C2O)c2ncccc2c1 [N-carbamoyl glucuronide of PQ, (S)-primaquine-N-carbamoyl-β-D-glucuronide]
- enantiomer from which the metabolite is generated [1]: exclusively formed from (+)-PQ
- enantiomer from which the metabolite is generated ([1]; listed as carbamoyl glucuronide of PQ): exclusively generated from (+)-PQ

SMILES: COc1cc(NC(C)CCCO)c2ncccc2c1 (stereo not drawn) [PQ terminal alcohol, primaquine alcohol]
- enantiomer from which the metabolite is generated [1]: preferentially generated from the (−)-PQ

SMILES: COc1cc(NC(C)CCCOC2OC(C(=O)O)C(O)C(O)C2O)c2ncccc2c1 [glucuronide of PQ alcohol, Primaquine alcohol-O-β-D-glucuronide]
- enantiomer from which the metabolite is generated [1]: preferentially generated from the (−)-PQ

SMILES: COc1cc(NC(C)CCCNC2OC(CO)C(O)C(O)C2O)c2ncccc2c1 (stereo not drawn) [glycosylated conjugate of PQ]
- enantiomer from which the metabolite is generated [1]: preferentially generated by (+)-PQ
- enantiomer from which the metabolite is generated ([1]; listed as PQ conjugate formed by apparent N-glucosylation): preferentially formed with (+)-PQ
- enantiomer from which the metabolite is generated ([1]; listed as glycosylated PQ): preferentially generated from (+)-PQ
- time of peak formation ([1]; biphasic increase): ≤ 30 min
- formation in cell-free media [11]: formed non-enzymatically
